Measurements: patent publication US20220362386A1, “LIQUID COMPOSITIONS COMPRISING A LEVODOPA AMINO ACID CONJUGATE AND USES THEREOF” (NeuroDerm, Ltd., priority 2019, published 2022)
Counter-ions that a name gives are not always drawn. Like-named read-outs stand apart in the source and are kept apart here. Values belong to the compound of their own block, whether it stands above or below them. Non-standard residues stand in square brackets, D forms with d. Residues, ends and D or L forms follow the SMILES beside them. Dopa = N[C@@H](Cc1ccc(O)c(O)c1)C(=O)O

Legend:
physchem = type: physicochemical; details: for solubility thermodynamic: read-out: LD-Lys TFA salt concentration
Description: The volume of the solution in the bottle was adjusted to 5 ml, either by adding solvent, or be removing any residual solution, after which the bottle was tightly closed and left at 25° C. for stability observation. It is noted that throughout Example 4, the concentrations in the tables below were calculated taking into account the amount of solvent added or the solution removed, in which event, the calculations were performed regarding the 5 ml+(amount removed) as the volume of the solution. It is further noted that throughout this document, unless mentioned otherwise, the stability was measured using the manual visual inspection Bosch apparatus MIH DX, at a magnification of ×1.75.
(§1) The LD-Tyr free base, prepared according to Example 2, was added to a solvent, as detailed in Table 7 below, and neutralized by addition of NaOH. When maximum solubility was observed, the solution was filtered and then transferred to a bottle that was previously weighed and flushed with nitrogen. The volume of the solution in the bottle was adjusted to 5 ml, after which the bottle was tightly closed and left at 25° C. for stability observation.
(§2) When maximum solubility was observed, the solution was filtered and then transferred to a bottle that was previously weighed and flushed with nitrogen. The volume of the solution in the bottle was adjusted to 5 ml, after which the bottle was tightly closed and left at 25° C. for stability observation.
as §2, with “stored” for “left”
as §2, with “stored” for “left”
as §1, with “LD-Lys TFA salt,” for “The LD-Tyr free base,”, “1, and which comprises two equivalents of TFA,” for “2,”, “11” for “7”, “stored” for “left”
as §2, with “As detailed above regarding other solutions, with the LD-Tyr free base when” for “When”
as §1, with “LD-Lys HCl salt,” for “The LD-Tyr free base,”, “3,” for “2,”, “13” for “7”, “by the” for “by”

[1] = Analytical stability of LD-Tyr/CD formulations by HPLC (Tables 42-45c); details: for % retention, t = 1 week / Analytical stability result (HPLC), t = 1 week / % retention, t = 2 weeks / Analytical stability result (HPLC), t = 2 weeks: NB 144-4 formulation; for Analytical stability result (HPLC), t = 1 week / Analytical stability result (HPLC), t = 2 weeks: in mg/mL (unit assumed)
Description: (§3) It is noted that the recovery % compared the amount of any given material as measured at t=28 h (or any other presented value) compared to the amount of that material, at measured at t=0.

[2] = 0 weeks
Description: as §3

Caco-2 cells [3] = test: In-vitro absorption, Caco-2 A-B permeability; type: in vitro ADME, human; details: Caco-2 A-B; both with and without verapamil
Description: Conditions may be adjusted when necessary.
D denotes donor and R is receiver. […] V is the volume of the donor or receiver.
The test was performed with and without verapamil, which is a permeation inhibitor, and the results are presented in Tables 22 (without verapamil) and 34 (with verapamil).

Caco-2 cells [4] = test: in vitro; details: Caco-2
[5] = solvent DMSO:(0.1% NaBis in WFI) (70:30), pH 5.40
[6] = solvent NMP:(0.1% NaBis in WFI) (70:30), pH 4.62
[7] = solvent […] CD solution in WFI, pH 8.35 (titer/NaOH)
[8] = NB 144-32 (F1), 37% LD-Tyr/0.5% CD
[9] = NB 144-34 (F2), 44% LD-Tyr/0.5% CD
[10] = NB 144-39 (F3), 30% LD-Tyr/0.5% CD
[11] = solvent 0.1% NaBis in WFI, pH 1.8
[12] = solvent 0.1% NaBis in WFI, pH 6.92
[13] = solvent 0.1% NaBis in WFI, pH 6.99
[14] = solvent 0.1% NaBis in WFI, pH 7.06
[15] = solvent […] CD solution, pH 8.48
[16] = solvent 0.75% CD solution, pH 6.5, precipitated
[17] = solvent 0.75% CD solution, pH 7.4 (line r20)
[18] = solvent 0.75% CD solution, pH 7.4, precipitated (line r14)
[19] = solvent […] CD solution, pH 8.36

Compound: N[C@@H](Cc1ccc(O)c(O)c1)C(=O)N[C@@H](Cc1ccc(O)cc1)C(=O)O [LD-Tyr TFA salt, Levodopa Tyrosine TFA Salt] (H-[Dopa]-Tyr-OH)
Appearance (physchem; 0.1% sodium bisulfite (Na Bis) in WFI, pH 7.22 (titer/NaOH), 205 mg/ml salt, TFA Salt): precipitated | solubility (physchem; 0.1% sodium bisulfite in WFI, 25 °C, aqueous buffer, thermodynamic from solid, solvent 0.1% sodium bisulfite (Na Bis) in WFI, pH 7.22 (titer/NaOH), precipitated during titration): ≤ 205 mg/mL | Appearance (physchem; DMSO:(0.1% NaBis in WFI) (70:30), pH 5.40, 200 mg/ml salt): clear | Appearance (physchem; DMSO, 184 mg/ml salt): clear | Appearance (physchem; NMP:(0.1% NaBis in WFI) (70:30), pH 4.62, 200 mg/ml salt): clear | Appearance (physchem; NMP, 200 mg/ml salt): Clear | Appearance (physchem; WFI, pH ~2, 210 mg/ml salt): clear | Appearance (physchem; […] CD solution in WFI, pH 8.35, 178 mg/ml salt): clear | LD-Tyr free base Concentration (physchem; solvent 0.1% sodium bisulfite (Na Bis) in WFI, pH 7.22 (titer/NaOH), precipitated during titration): 160 mg/mL | LD-Tyr TFA salt concentration (physchem; solvent DMSO): 184 mg/mL | LD-Tyr free base Concentration (physchem; solvent DMSO): 140 mg/mL | LD-Tyr TFA salt concentration (physchem; [5]): 200 mg/mL | LD-Tyr free base Concentration (physchem; [5]): 150 mg/mL | LD-Tyr TFA salt concentration (physchem; solvent NMP): 200 mg/mL | LD-Tyr free base Concentration (physchem; solvent NMP): 150 mg/mL | LD-Tyr TFA salt concentration (physchem; [6]): 200 mg/mL | LD-Tyr free base Concentration (physchem; [6]): 150 mg/mL | LD-Tyr TFA salt concentration (physchem; solvent Water for injection (WFI), pH ~2): 210 mg/mL | LD-Tyr free base Concentration (physchem; solvent Water for irrigation (WFI), pH ~2): 160 mg/mL | LD-Tyr TFA salt concentration (physchem; [7]): 178 mg/mL | LD-Tyr free base Concentration (physchem; [7]): 135 mg/mL | % retention, t = 1 week ([1]; Storage temp. 2-8° C.): 98.8% | Analytical stability result (HPLC), t = 1 week ([1]; Storage temp. 2-8° C.): 323.22 | % retention, t = 2 weeks ([1]; Storage temp. 2-8° C.): 99.7% | Analytical stability result (HPLC), t = 2 weeks ([1]; Storage temp. 2-8° C.): 326.20 | % retention, t = 1 week ([1]; Storage temp. 25° C.): 101.1% | Analytical stability result (HPLC), t = 1 week ([1]; Storage temp. 25° C.): 330.81 | % retention, t = 2 weeks ([1]; Storage temp. 25° C.): 97.3% | Analytical stability result (HPLC), t = 2 weeks ([1]; Storage temp. 25° C.): 318.15 | % retention, t = 1 week ([1]; Storage temp. 40° C.): 93.0% | Analytical stability result (HPLC), t = 1 week ([1]; Storage temp. 40° C.): 304.24 | Concentration (HPLC), t = 0 [1, 8]: 364.15 | Concentration (HPLC), t = 28 h at 32° C. [1, 8]: 352.22 | Concentration (HPLC), t = 0 [1, 9]: 437.98 | Concentration (HPLC), t = 28 h at 32° C. [1, 9]: 424.09 | Concentration (HPLC), t = 0 [1, 10]: 295.42 | Concentration (HPLC), t = 28 h at 32° C. [1, 10]: 291.94 | Analytical stability result (HPLC), t = 0 [2]: 327.05

Compound: N=C(N)NCCC[C@H](NC(=O)[C@@H](N)Cc1ccc(O)c(O)c1)C(=O)O [LD-Arg TFA salt, Levodopa Arginine TFA Salt]
Appearance (physchem; 0.1% NaBis in WFI, pH 1.8, 610 mg/ml salt): clear | Appearance (physchem; 0.1% NaBis in WFI, pH 6.92, 200 mg/ml salt): clear | Appearance (physchem; 0.1% NaBis in WFI, pH 6.99, 420 mg/ml salt): clear | Appearance (physchem; 0.1% NaBis in WFI, pH 7.06, 200 mg/ml salt): clear | Appearance (physchem; WFI, pH 1.7, 600 mg/ml salt): clear | Appearance (physchem; WFI, pH 7.2, 200 mg/ml salt): clear | Appearance (physchem; WFI, pH 7.2, 420 mg/ml salt): clear | Appearance (physchem; […] CD solution, pH 8.48, 180 mg/ml salt): clear | LD-Arg TFA salt concentration (physchem; [11]): 610 mg/mL | LD-Arg free base Concentration (physchem; [11]): 370 mg/mL | LD-Arg TFA salt concentration (physchem; [12]): 200 mg/mL | LD-Arg free base Concentration (physchem; [12]): 120 mg/mL | LD-Arg TFA salt concentration (physchem; [13]): 420 mg/mL | LD-Arg free base Concentration (physchem; [13]): 260 mg/mL | LD-Arg TFA salt concentration (physchem; [14]): 200 mg/mL | LD-Arg free base Concentration (physchem; [14]): 120 mg/mL | LD-Arg TFA salt concentration (physchem; solvent WFI, pH 1.7): 600 mg/mL | LD-Arg free base Concentration (physchem; solvent WFI, pH 1.7): 370 mg/mL | LD-Arg TFA salt concentration (physchem; solvent WFI, pH 7.2 (line r9)): 420 mg/mL | LD-Arg free base Concentration (physchem; solvent WFI, pH 7.2 (line r9)): 260 mg/mL | LD-Arg TFA salt concentration (physchem; solvent WFI, pH 7.2 (line r17)): 200 mg/mL | LD-Arg free base Concentration (physchem; solvent WFI, pH 7.2 (line r17)): 120 mg/mL | LD-Arg TFA salt concentration (physchem; [15]): 180 mg/mL | LD-Arg free base Concentration (physchem; [15]): 110 mg/mL

mean permeability compared with the other compounds (in words) (Caco-2 cells [3]): highest mean permeability | mean permeability compared with the other compounds (in words) (Caco-2 cells [4]): highest mean permeability
Compound: N[C@@H](CSC[C@H](NC(=O)[C@@H](N)Cc1ccc(O)c(O)c1)C(=O)O)C(=O)O (single isomer, unassigned; peak 2) [LD-LA2 TFA salt, Levodopa Lanthionine Peak 2 TFA Salt]

Compound: NCCCC[C@H](NC(=O)[C@@H](N)Cc1ccc(O)c(O)c1)C(=O)O [LD-Lys TFA salt, Levodopa Lysine TFA Salt] (H-[Dopa]-Lys-OH)
Appearance (physchem; 0.1% NaBis in WFI, pH 7.0, 520 mg/ml salt): clear | Appearance (physchem; 0.75% CD solution, pH 6.5, 250 mg/ml salt): precipitated | Appearance (physchem; 0.75% CD solution, pH 7.4, 205 mg/ml salt): clear | Appearance (physchem; 0.75% CD solution, pH 7.4, 250 mg/ml salt): precipitated | solubility thermodynamic (physchem; 25 °C, aqueous buffer, thermodynamic from solid, solvent 0.1% NaBis in WFI, pH 7.0): 520 mg/mL | solubility thermodynamic (physchem; 25 °C, water, thermodynamic from solid, solvent WFI, pH 1.86): 770 mg/mL | Appearance (physchem; WFI, pH 1.86, 770 mg/ml salt): clear | Appearance (physchem; WFI, pH 7.1, 600 mg/ml salt): clear | Appearance (physchem; […] CD solution, pH 8.36, 180 mg/ml salt): clear | LD-Lys free base Concentration (physchem; solvent 0.1% NaBis in WFI, pH 7.0): 310 mg/mL | LD-Lys TFA salt concentration (physchem; [16]): 250 mg/mL | LD-Lys free base Concentration (physchem; [16]): 150 mg/mL | LD-Lys TFA salt concentration (physchem; [17]): 205 mg/mL | LD-Lys free base Concentration (physchem; [17]): 120 mg/mL | LD-Lys TFA salt concentration (physchem; [18]): 250 mg/mL | LD-Lys free base Concentration (physchem; [18]): 150 mg/mL | LD-Lys free base Concentration (physchem; solvent WFI, pH 1.86): 450 mg/mL | LD-Lys TFA salt concentration (physchem; solvent WFI, pH 7.1): 600 mg/mL | LD-Lys free base Concentration (physchem; solvent WFI, pH 7.1): 350 mg/mL | LD-Lys TFA salt concentration (physchem; [19]): 180 mg/mL | LD-Lys free base Concentration (physchem; [19]): 110 mg/mL
